Where a SMILES comes first, the peptide text is derived from it. Bridges are numbered along the chain shown (N, C = ends). [ ]: non-standard residue; d: D form. Tyr(3-NO2) = N[C@@H](Cc1ccc(O)c([N+](=O)[O-])c1)C(=O)O; Phe(4-CF3) = N[C@@H](Cc1ccc(C(F)(F)F)cc1)C(=O)O; Phe(2-CF3) = N[C@@H](Cc1ccccc1C(F)(F)F)C(=O)O; Phe(3-CN) = N#Cc1cccc(C[C@H](N)C(=O)O)c1; Phe(4-CN) = N#Cc1ccc(C[C@H](N)C(=O)O)cc1; Phe(2-OMe) = COc1ccccc1C[C@H](N)C(=O)O; Phe(4-F) = N[C@@H](Cc1ccc(F)cc1)C(=O)O; 1Nal = N[C@@H](Cc1cccc2ccccc12)C(=O)O; Phe(2-F) = N[C@@H](Cc1ccccc1F)C(=O)O; hTyr = N[C@@H](CCc1ccc(O)cc1)C(=O)O; hArg = N=C(N)NCCCC[C@H](N)C(=O)O; 3Pal = N[C@@H](Cc1cccnc1)C(=O)O; Tic = O=C(O)[C@@H]1Cc2ccccc2CN1; Agb = N=C(N)NCC[C@H](N)C(=O)O; Orn = NCCC[C@H](N)C(=O)O
Target: T1, Coagulation factor XII (Homo sapiens, UniProt P00748)
T1 sequence (P00748 whole entry): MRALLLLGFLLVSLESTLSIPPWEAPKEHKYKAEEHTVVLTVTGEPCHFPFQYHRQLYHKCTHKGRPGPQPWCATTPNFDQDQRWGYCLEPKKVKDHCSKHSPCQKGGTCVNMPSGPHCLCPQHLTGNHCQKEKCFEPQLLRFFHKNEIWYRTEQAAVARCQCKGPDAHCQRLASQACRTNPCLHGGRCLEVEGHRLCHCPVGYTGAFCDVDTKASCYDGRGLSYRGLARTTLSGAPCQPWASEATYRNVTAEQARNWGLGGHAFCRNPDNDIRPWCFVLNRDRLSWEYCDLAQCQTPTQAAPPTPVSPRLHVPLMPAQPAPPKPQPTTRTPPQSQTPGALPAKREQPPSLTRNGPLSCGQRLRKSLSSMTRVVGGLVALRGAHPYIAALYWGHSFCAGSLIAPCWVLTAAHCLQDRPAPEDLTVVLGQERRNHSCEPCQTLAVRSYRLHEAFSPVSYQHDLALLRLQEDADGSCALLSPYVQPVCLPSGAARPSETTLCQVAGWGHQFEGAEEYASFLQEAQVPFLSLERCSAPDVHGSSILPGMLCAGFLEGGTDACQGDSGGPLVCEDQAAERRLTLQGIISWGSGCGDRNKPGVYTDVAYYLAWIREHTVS
Assay: Inhibition of human factor 12a using H-D-Pro-Phe-Arg-p-nitroanilide as chromogenic substrate assessed as liberation of p-nitroaniline measured every 5 mins for 60 min by multimode plate reader analysis

SMILES | IC50
CC(C)C[C@@H]1NC(=O)[C@H](Cc2cccnc2)NC(=O)CSC[C@@H](C(N)=O)NC(=O)CNC(=O)CNC(=O)[C@H](CCCNC(=N)N)NC(=O)[C@H](CC(=O)O)NC(=O)[C@H](CCCCN)NC(=O)[C@@H]2CCCN2C(=O)[C@H](CCCNC(=N)N)NC(=O)[C@H](Cc2ccccc2)NC(=O)[C@H](CCCNC(=N)N)NC1=O ({CH2CO}-[3Pal]LRFRPKDRGGC-NH2; thioether N-12) | 15 µM
CC(C)C[C@@H]1NC(=O)[C@H](Cc2ccc(O)cc2)NC(=O)CSC[C@@H](C(N)=O)NC(=O)[C@H](C)NC(=O)CNC(=O)[C@H](CCCNC(=N)N)NC(=O)[C@H](CC(=O)O)NC(=O)[C@H](CCCCN)NC(=O)[C@@H]2CCCN2C(=O)[C@H](CCCNC(=N)N)NC(=O)[C@H](Cc2ccccc2)NC(=O)[C@H](CCCNC(=N)N)NC1=O ({CH2CO}-YLRFRPKDRGAC-NH2; thioether N-12) | 15 µM
CC(C)C[C@@H]1NC(=O)[C@H](Cc2ccc(O)cc2)NC(=O)CSC[C@@H](C(N)=O)NC(=O)[C@H](C)NC(=O)CNC(=O)[C@H](CCC(N)=O)NC(=O)[C@H](CC(N)=O)NC(=O)[C@H]([C@@H](C)O)NC(=O)[C@@H]2CCCN2C(=O)[C@H](CCCCN)NC(=O)[C@H](CC(C)C)NC(=O)[C@H](CCCNC(=N)N)NC1=O ({CH2CO}-YLRLKPTNQGAC-NH2; thioether N-12) | 73 µM
CC(C)C[C@@H]1NC(=O)[C@H](Cc2ccc(O)c([N+](=O)[O-])c2)NC(=O)CSC[C@@H](C(N)=O)NC(=O)CNC(=O)CNC(=O)[C@H](CCCNC(=N)N)NC(=O)[C@H](CC(=O)O)NC(=O)[C@H](CCCCN)NC(=O)[C@@H]2CCCN2C(=O)[C@H](CCCNC(=N)N)NC(=O)[C@H](Cc2ccccc2)NC(=O)[C@H](CCCNC(=N)N)NC1=O ({CH2CO}-[Tyr(3-NO2)]LRFRPKDRGGC-NH2; thioether N-12) | 90 µM
COc1ccccc1C[C@@H]1NC(=O)CSC[C@@H](C(N)=O)NC(=O)CNC(=O)CNC(=O)[C@H](CCCNC(=N)N)NC(=O)[C@H](CC(=O)O)NC(=O)[C@H](CCCCN)NC(=O)[C@@H]2CCCN2C(=O)[C@H](CCCNC(=N)N)NC(=O)[C@H](Cc2ccccc2)NC(=O)[C@H](CCCNC(=N)N)NC(=O)[C@H](CC(C)C)NC1=O ({CH2CO}-[Phe(2-OMe)]LRFRPKDRGGC-NH2; thioether N-12) | 400 µM
CC(C)C[C@@H]1NC(=O)[C@H](Cc2ccc(C(F)(F)F)cc2)NC(=O)CSC[C@@H](C(N)=O)NC(=O)CNC(=O)CNC(=O)[C@H](CCCNC(=N)N)NC(=O)[C@H](CC(=O)O)NC(=O)[C@H](CCCCN)NC(=O)[C@@H]2CCCN2C(=O)[C@H](CCCNC(=N)N)NC(=O)[C@H](Cc2ccccc2)NC(=O)[C@H](CCCNC(=N)N)NC1=O ({CH2CO}-[Phe(4-CF3)]LRFRPKDRGGC-NH2; thioether N-12) | 74 µM
CC(C)C[C@@H]1NC(=O)[C@H](Cc2ccc(O)cc2)NC(=O)CSC[C@@H](C(N)=O)NC(=O)CNC(=O)CNC(=O)[C@H](CCCNC(=N)N)NC(=O)[C@H](CC(=O)O)NC(=O)[C@H](CCCCN)NC(=O)[C@@H]2CCCN2C(=O)[C@H](CCCN)NC(=O)[C@H](Cc2ccccc2)NC(=O)[C@H](CCCNC(=N)N)NC1=O ({CH2CO}-YLRF[Orn]PKDRGGC-NH2; thioether N-12) | 2.1 µM
CC(C)C[C@@H]1NC(=O)[C@H](Cc2ccc(O)cc2)NC(=O)CSC[C@@H](C(N)=O)NC(=O)CNC(=O)CNC(=O)[C@H](CCCNC(=N)N)NC(=O)[C@H](CC(=O)O)NC(=O)[C@H](CCCCN)NC(=O)[C@@H]2CCCN2C(=O)[C@H](CCNC(=N)N)NC(=O)[C@H](Cc2ccccc2)NC(=O)[C@H](CCCNC(=N)N)NC1=O ({CH2CO}-YLRF[Agb]PKDRGGC-NH2; thioether N-12) | 3.3 µM
CC(C)C[C@@H]1NC(=O)[C@H](Cc2ccc(O)cc2)NC(=O)CSC[C@@H](C(N)=O)NC(=O)CNC(=O)CNC(=O)[C@H](CCCNC(=N)N)NC(=O)[C@H](CC(=O)O)NC(=O)[C@H](CCCCN)NC(=O)[C@@H]2CCCN2C(=O)[C@H](C)NC(=O)[C@H](Cc2ccccc2)NC(=O)[C@H](CCCNC(=N)N)NC1=O ({CH2CO}-YLRFAPKDRGGC-NH2; thioether N-12) | 79 µM
CC(C)C[C@@H]1NC(=O)[C@H](Cc2ccc(O)cc2)NC(=O)CSC[C@@H](C(N)=O)NC(=O)CNC(=O)CNC(=O)[C@H](CCC(N)=O)NC(=O)[C@H](C)NC(=O)[C@H]([C@@H](C)O)NC(=O)[C@@H]2CCCN2C(=O)[C@H](CCCCN)NC(=O)[C@H](CC(C)C)NC(=O)[C@H](CCCNC(=N)N)NC1=O ({CH2CO}-YLRLKPTAQGGC-NH2; thioether N-12) | 0.59 µM
CC(C)C[C@@H]1NC(=O)[C@H](Cc2ccc(O)cc2)NC(=O)CSC[C@@H](C(N)=O)NC(=O)CNC(=O)CNC(=O)[C@H](C)NC(=O)[C@H](CC(N)=O)NC(=O)[C@H]([C@@H](C)O)NC(=O)[C@@H]2CCCN2C(=O)[C@H](CCCCN)NC(=O)[C@H](CC(C)C)NC(=O)[C@H](CCCNC(=N)N)NC1=O ({CH2CO}-YLRLKPTNAGGC-NH2; thioether N-12) | 1 µM
CC(C)C[C@@H]1NC(=O)[C@H](Cc2ccc(O)cc2)NC(=O)CSC[C@@H](C(N)=O)NC(=O)CNC(=O)CNC(=O)[C@H](CCCNC(=N)N)NC(=O)[C@H](CC(=O)O)NC(=O)[C@H](CCCCN)NC(=O)[C@@H]2CCCN2C(=O)[C@H](CCCNC(=N)N)NC(=O)[C@@H]2Cc3ccccc3CN2C(=O)[C@H](CCCNC(=N)N)NC1=O ({CH2CO}-YLR[Tic]RPKDRGGC-NH2; thioether N-12) | 22 µM

The next molecules have a lower IC50 than those just listed; values first:

IC50 | SMILES
0.56 µM | CC(C)C[C@@H]1NC(=O)[C@H](Cc2ccc(O)cc2)NC(=O)CSC[C@@H](C(N)=O)NC(=O)CNC(=O)CNC(=O)[C@H](CCCNC(=N)N)NC(=O)[C@H](CC(=O)O)NC(=O)[C@H](CCCCN)NC(=O)[C@@H]2CCCN2C(=O)[C@H](CCCNC(=N)N)NC(=O)[C@H](CCc2ccc(O)cc2)NC(=O)[C@H](CCCNC(=N)N)NC1=O ({CH2CO}-YLR[hTyr]RPKDRGGC-NH2; thioether N-12)
0.47 µM | CC(C)C[C@@H]1NC(=O)[C@H](Cc2ccc(F)cc2)NC(=O)CSC[C@@H](C(N)=O)NC(=O)CNC(=O)CNC(=O)[C@H](CCCNC(=N)N)NC(=O)[C@H](CC(=O)O)NC(=O)[C@H](CCCCN)NC(=O)[C@@H]2CCCN2C(=O)[C@H](CCCNC(=N)N)NC(=O)[C@H](Cc2ccccc2)NC(=O)[C@H](CCCNC(=N)N)NC1=O ({CH2CO}-[Phe(4-F)]LRFRPKDRGGC-NH2; thioether N-12)
0.47 µM | CC(C)C[C@@H]1NC(=O)[C@H](Cc2ccc(O)cc2)NC(=O)CSC[C@@H](C(N)=O)NC(=O)CNC(=O)CNC(=O)[C@H](CCCNC(=N)N)NC(=O)[C@H](CC(=O)O)NC(=O)[C@H](CCCCN)NC(=O)[C@@H]2CCCN2C(=O)[C@H](CCCCNC(=N)N)NC(=O)[C@H](Cc2ccccc2)NC(=O)[C@H](CCCNC(=N)N)NC1=O ({CH2CO}-YLRF[hArg]PKDRGGC-NH2; thioether N-12)
0.35 µM | CC(C)C[C@@H]1NC(=O)[C@H](Cc2ccccc2F)NC(=O)CSC[C@@H](C(N)=O)NC(=O)CNC(=O)CNC(=O)[C@H](CCCNC(=N)N)NC(=O)[C@H](CC(=O)O)NC(=O)[C@H](CCCCN)NC(=O)[C@@H]2CCCN2C(=O)[C@H](CCCNC(=N)N)NC(=O)[C@H](Cc2ccccc2)NC(=O)[C@H](CCCNC(=N)N)NC1=O ({CH2CO}-[Phe(2-F)]LRFRPKDRGGC-NH2; thioether N-12)
0.16 µM | CC(C)C[C@@H]1NC(=O)[C@H](Cc2ccc(O)cc2)NC(=O)CSC[C@@H](C(N)=O)NC(=O)CNC(=O)CNC(=O)[C@H](CCCNC(=N)N)NC(=O)[C@H](CC(=O)O)NC(=O)[C@H](CCCCN)NC(=O)[C@@H]2CCCN2C(=O)[C@H](CCCNC(=N)N)NC(=O)[C@H](Cc2cccc(C#N)c2)NC(=O)[C@H](CCCNC(=N)N)NC1=O ({CH2CO}-YLR[Phe(3-CN)]RPKDRGGC-NH2; thioether N-12)
0.11 µM | CC(C)C[C@@H]1NC(=O)[C@H](Cc2ccc(O)cc2)NC(=O)CSC[C@@H](C(N)=O)NC(=O)CNC(=O)CNC(=O)[C@H](CCCNC(=N)N)NC(=O)[C@H](CC(=O)O)NC(=O)[C@H](CCCCN)NC(=O)[C@@H]2CCCN2C(=O)[C@H](CCCNC(=N)N)NC(=O)[C@H](Cc2ccc(C(F)(F)F)cc2)NC(=O)[C@H](CCCNC(=N)N)NC1=O ({CH2CO}-YLR[Phe(4-CF3)]RPKDRGGC-NH2; thioether N-12)
0.09 µM | CC(C)C[C@@H]1NC(=O)[C@H](Cc2ccc(O)cc2)NC(=O)CSC[C@@H](C(N)=O)NC(=O)CNC(=O)CNC(=O)[C@H](CCCNC(=N)N)NC(=O)[C@H](CC(=O)O)NC(=O)[C@H](CCCCN)NC(=O)[C@@H]2CCCN2C(=O)[C@H](CCCNC(=N)N)NC(=O)[C@H](Cc2ccc(C#N)cc2)NC(=O)[C@H](CCCNC(=N)N)NC1=O ({CH2CO}-YLR[Phe(4-CN)]RPKDRGGC-NH2; thioether N-12)
0.068 µM | CC(C)C[C@@H]1NC(=O)[C@H](Cc2ccc(O)cc2)NC(=O)CSC[C@@H](C(N)=O)NC(=O)CNC(=O)CNC(=O)[C@H](CCCNC(=N)N)NC(=O)[C@H](CC(=O)O)NC(=O)[C@H](CCCCN)NC(=O)[C@@H]2CCCN2C(=O)[C@H](CCCNC(=N)N)NC(=O)[C@H](Cc2cccc3ccccc23)NC(=O)[C@H](CCCNC(=N)N)NC1=O ({CH2CO}-YLR[1Nal]RPKDRGGC-NH2; thioether N-12)
0.042 µM | CC(C)C[C@@H]1NC(=O)[C@H](Cc2ccc(O)cc2)NC(=O)CSC[C@@H](C(N)=O)NC(=O)CNC(=O)CNC(=O)[C@H](CCCNC(=N)N)NC(=O)[C@H](CC(=O)O)NC(=O)[C@H](CCCCN)NC(=O)[C@@H]2CCCN2C(=O)[C@H](CCCNC(=N)N)NC(=O)[C@H](Cc2ccccc2C(F)(F)F)NC(=O)[C@H](CCCNC(=N)N)NC1=O ({CH2CO}-YLR[Phe(2-CF3)]RPKDRGGC-NH2; thioether N-12)

From ChEMBL document CHEMBL5042477, “Potent Cyclic Peptide Inhibitors of FXIIa Discovered by mRNA Display with Genetic Code Reprogramming” (J Med Chem, 2021)
